Consider seven compounds from the NIST ThermoML archive (doi:10.1016/j.jct.2014.01.031).

± gives the expanded uncertainty stated by the source.

By viscosity is commonly meant the resistance of a fluid to flow.

For series [1] the following is noted: 298.15 K, 101 kPa, Liquid; for electrical conductivity: Alternating current cell with electrodes; for viscosity: Falling or rolling sphere viscometry; for self diffusion coefficient: PFG NMR Spectroscopy.
The nature of series [2]: xn = mol fraction of the nth substance listed. To be noted: 298.15 K, 101 kPa, Liquid; for electrical conductivity: Alternating current cell with electrodes; for viscosity: Falling or rolling sphere viscometry.

With `CCCCn1cc[n+](C)c1.COS(=O)(=O)[O-]` [1-butyl-3-methylimidazolium methyl sulfate], in series [1], the electrical conductivity came to 0.126 ± 0.002 S/m, the viscosity was determined as 223 ± 12 mPa·s and the self diffusion coefficient came to 1.3e-11 m2/s.
Consider `CCCCn1cc[n+](C)c1.COS(=O)(=O)[O-]` [1-butyl-3-methylimidazolium methyl sulfate] + O, for which the electrical conductivity was 0.126 ± 0.002 S/m in series [2] (x2 = 0); 0.247 ± 0.003 S/m in series [2] (x2 = 0.1999); 0.4 ± 0.005 S/m in series [2] (x2 = 0.4037); 0.799 ± 0.01 S/m in series [2] (x2 = 0.617); 1.77 ± 0.021 S/m in series [2] (x2 = 0.7937); 3.42 ± 0.041 S/m in series [2] (x2 = 0.9437). Moreover, the electrical conductivity in series [2] (x2 = 0.992) is 1.92 ± 0.044 S/m; in series [2] (x2 = 0.9977), 0.849 ± 0.039 S/m. Moreover, the viscosity was 223 ± 12 mPa·s in series [2] (x2 = 0); 112 ± 4 mPa·s in series [2] (x2 = 0.1999); 63.1 ± 2.1 mPa·s in series [2] (x2 = 0.4037); 27.6 ± 1 mPa·s in series [2] (x2 = 0.617); 11.5 ± 0.4 mPa·s in series [2] (x2 = 0.7937).
For `CCn1cc[n+](C)c1.COS(=O)(=O)[O-]` [1-ethyl-3-methylimidazolium methylsulfate], in series [1], the electrical conductivity was 0.547 ± 0.007 S/m, the viscosity turned out to be 81.4 ± 2.7 mPa·s and the self diffusion coefficient was 4.6e-11 m2/s.
Consider `CCn1cc[n+](C)c1.COS(=O)(=O)[O-]` [1-ethyl-3-methylimidazolium methylsulfate] + O, for which the electrical conductivity in series [2] (x2 = 0) was found to be 0.547 ± 0.007 S/m; in series [2] (x2 = 0.2542), 0.909 ± 0.011 S/m; in series [2] (x2 = 0.4994), 1.6 ± 0.019 S/m; in series [2] (x2 = 0.7519), 3.16 ± 0.038 S/m; in series [2] (x2 = 0.8053), 3.99 ± 0.048 S/m; in series [2] (x2 = 0.9249), 6.23 ± 0.075 S/m. Moreover, in series [2] (x2 = 0.9737), the electrical conductivity is 4.58 ± 0.055 S/m. Besides, the viscosity in series [2] (x2 = 0) is given as 81.4 ± 2.7 mPa·s; in series [2] (x2 = 0.2542) it was 39.7 ± 1.3 mPa·s; in series [2] (x2 = 0.4994) it was 20.2 ± 0.7 mPa·s; in series [2] (x2 = 0.7519), 8.59 ± 0.31 mPa·s; in series [2] (x2 = 0.8053), 6.62 ± 0.25 mPa·s; in series [2] (x2 = 0.9249) it was 2.59 ± 0.1 mPa·s. Also, the viscosity in series [2] (x2 = 0.9737) is on record as 1.43 ± 0.06 mPa·s.
Consider `O` [water], for which, in series [1], the viscosity stood at 0.89 ± 0.04 mPa·s and the self diffusion coefficient was determined as 2.3e-09 m2/s.
`O` [water] + CCCCn1cc[n+](C)c1.COS(=O)(=O)[O-]: the viscosity in series [2] (x1 = 1) is recorded as 0.89 ± 0.04 mPa·s.
`O` [water] + CCn1cc[n+](C)c1.COS(=O)(=O)[O-]: the viscosity in series [2] (x1 = 1) stood at 0.89 ± 0.04 mPa·s.
